For the assay, the system named is male Lister Hooded rats. Put plainly: Rat Conditioned Emotional Response (CER) Model of Anxiety. It is filed as in vivo. The settings on record: 10.0 mg/kg po, 40 min pre-test, hydrochloride; for Suppression Ratio (± SEM): SR 0 = complete suppression, 0.5 = absence of fear; for Rate of responding per minute ±SEM “Dur” period / Rate of responding per minute ±SEM “Pre” period: collapsed across two test trials.

Description: Sixty male Lister Hooded rats with a mean free-feeding weight of 472 g were used. Rats were housed in cages of four and were fed a restricted diet designed to maintain rats at 85% of their free-feeding body weight. A 12:12 light/dark cycle was in effect in the colony room and the rats were trained and tested during the light part of the cycle.
These chambers were housed in outer sound and light attenuating shells equipped with a ventilation fan which also helped to mask external noise. A single operant lever was positioned on the left side of the front panel of the operant chamber, approximately 2 cm above the grid floor. Coulbourn animal test cage grid floor shockers (E13-14) were used to deliver shock (0.4 mA, 0.5 s) to the grid floors (model E-10-10SF). […] A houselight (4.0 mA, 28V) was positioned on the front wall of the chamber, above the food magazine, approximately 1.0 cm below the ceiling.
Once the rats had been placed on a restricted feeding regime, magazine training began. On each of the first four days of training each rat received a 30 minute session of magazine training during which pellets were delivered on a variable interval (VI) 30 s schedule. […] These sessions lasted until either 30 minutes expired or 30 food pellets were delivered. […] On the VI 90 s schedule pellets could be earned by pressing the lever, on average, once every 90 s. The houselight was off throughout all of the training sessions.
CER training sessions were approximately 60 minutes long and usually conducted on 5 days per week. During these sessions, food pellets continued to be available on an VI 90 s schedule as before. However, the rats were now presented with two two-minute long periods of houselight illumination. The first light presentation occurred approximately 20 minutes after the start of the session (range 15-25 minutes) and the second light presentation occurred approximately 20 minutes after the first light presentation (range 15-25 minutes). Light presentations were occasionally followed by a 0.5 second 0.4 mA footshock. In a given session, footshock could follow neither, one, or both of the light presentations. On average rats would receive one shock presentation per session. The rate of lever-pressing during each of the light presentations (the ‘during’ or ‘dur’ period) and the rate of lever-pressing in the two minute interval preceding each light presentation (the ‘pre’ period) was recorded.
Once a reliable SR was observed, occasional test sessions occurred. Test sessions were identical to training session except that footshock was never delivered following the first light presentation. Tests occurred no more frequently than once per week and a baseline training session was always carried out before each test session.
The data were analysed with a mixed within-subject (trials) and between-subjects (drug treatment) analysis of variance (ANOVA). The ANOVA was conducted separately on the pre and during light response rates and on the suppression ratios. Significant interactions were followed by one-way analysis of variance on the data collected for each trial. Significant group effects were analysed using post-hoc Dunnett t-tests.

As to `CNC1=Nc2ccc(Cl)cc2C(c2ccccc2)=[N+]([O-])C1.Cl` [Chlordiazepoxide, chlordiazepoxide hydrochloride], the “Suppression Ratio (± SEM)” value was determined as 0.37 ± 0.05, the “Rate of responding per minute ±SEM “Dur” period” value was determined as 13.7 ± 3.1 per minute and the “Rate of responding per minute ±SEM “Pre” period” value turned out to be 21.8 ± 2.9 per minute. Further, for the setting “listed as CDP”, the “Suppression Ratio (± SEM)” value is given as “significant increase in SR” and the “Rate of responding per minute ±SEM “Dur” period” value is recorded as “significant increase in dur responding”. The “Rate of responding per minute ±SEM “Pre” period” value (listed as chlordiazepoxide) was “significant increase in pre responding”.

(Values after US20030166703A1, “Method of treatment” (priority 2000, published 2003).)
